Laboratory results published in PMC9610943, “Truncated Pleurocidin Derivative with High Pepsin Hydrolysis Resistance to Combat Multidrug-Resistant Pathogens” (Pharmaceutics, 2022).
Where no end group is shown, it is not given here.

What was measured:
MRSA 1530 = test: microbe, parasite or virus in culture; type: cell-based, Staphylococcus aureus; settings: 1530
Experimental: (§1) S. aureus ATCC 29213, E. coli ATCC 25922, S. enteritidis ATCC 13076 and A. baumannii ATCC 19609 were obtained from the American Type Culture Collection (ATCC). The remaining strains used in the experiment were all preserved strains in our laboratory. All strains were cultured in nutrient broth overnight to the logarithmic phase at 37 °C prior to each experiment.
(§2) The MICs of all drugs were determined by micro-broth dilution method according to CLSI 2018 guidelines. Briefly, a single colony of the bacterial strain was transferred to 1 mL of Mueller Hilton broth (MHB) and overnight at 37 °C and then 10 μL were cultured in a new 1 mL medium for 4 to 6 h, and then the bacterial culture at the logarithmic phase was diluted to 1 × 10^6 CFUs/mL. The assay was performed by adding 100 μL of each peptide solution at various concentrations (0.25 to 128 μg/mL) and 100 μL of diluted bacterial culture to different wells of a 96-well microtiter plate (Corning, NY, USA). After incubation at 37 °C for 16 to 18 h and then read its MIC value. MIC value is defined as the lowest drug concentration without visible bacteria.

MRSA T144 [1] = test: microbe, parasite or virus in culture; type: cell-based, Staphylococcus aureus; settings: T144
Experimental: as §1, §2

A. baumannii ATCC 19609 = test: microbe, parasite or virus in culture; type: cell-based; settings: ATCC 19609
Experimental: as §1, §2

E. coli 1F28 (tet(X4)) = test: microbe, parasite or virus in culture; type: cell-based; settings: 1F28 (tet(X4))
Experimental: as §1, §2

E. coli ATCC 25922 = test: microbe, parasite or virus in culture; type: cell-based; settings: ATCC 25922
Experimental: as §1, §2

[2] = tested on: E. coli B2 (blaNDM-5 + mcr-1); test: microbe, parasite or virus in culture; type: cell-based; settings: B2 (blaNDM-5 + mcr-1)
Experimental: as §1, §2

E. coli B3-1 (tet(X4)) = test: microbe, parasite or virus in culture; type: cell-based; settings: B3-1 (tet(X4))
Experimental: as §1, §2

E. coli C3 (blaNDM-1) = test: microbe, parasite or virus in culture; type: cell-based; settings: C3 (blaNDM-1)
Experimental: as §1, §2

E. coli CP131 (mcr-3) = test: microbe, parasite or virus in culture; type: cell-based; settings: CP131 (mcr-3)
Experimental: as §1, §2

E. coli G6 (blaNDM-5) = test: microbe, parasite or virus in culture; type: cell-based; settings: G6 (blaNDM-5)
Experimental: as §1, §2

E. coli G92 (mcr-1) = test: microbe, parasite or virus in culture; type: cell-based; settings: G92 (mcr-1)
Experimental: as §1, §2

[3] = tested on: E. faecalis A4 (VRE, VanA); test: microbe, parasite or virus in culture; type: cell-based; settings: A4 (VRE, VanA)
Experimental: as §1, §2

[4] = tested on: P. aeruginosa (VIM + tmexCD1-torJ1); test: microbe, parasite or virus in culture; type: cell-based; settings: VIM + tmexCD1-torJ1
Experimental: as §1, §2

P. aeruginosa PA14 = test: microbe, parasite or virus in culture; type: cell-based; settings: PA14
Experimental: as §1, §2

[5] = tested on: S. aureus 215 (cfr + LZD^R); test: microbe, parasite or virus in culture; type: cell-based; settings: S. aureus 215 (cfr + LZD^R); micro-broth dilution CLSI 2018, MHB, 37 °C, 16 to 18 h
Experimental: as §1, §2

S. aureus ATCC 29213 = test: microbe, parasite or virus in culture; type: cell-based; settings: ATCC 29213
Experimental: as §1, §2

S. aureus G16 (RIF^R) = test: microbe, parasite or virus in culture; type: cell-based; settings: S. aureus G16 (RIF^R); micro-broth dilution CLSI 2018, MHB, 37 °C, 16 to 18 h
Experimental: as §1, §2

[6] = tested on: S. enteritidis ATCC 13076; test: microbe, parasite or virus in culture; type: cell-based; settings: ATCC 13076
Experimental: as §1, §2

[7] = tested on: P. cibarius HNCF44W (blaNDM-1+ tet(X6)); test: organism not typed; type: cell-based
Experimental: as §1, §2

MRSA T144 [8] = type: cell-based, Staphylococcus aureus
Experimental: as §2
(§3) Then, the antibacterial activity of the peptides affected by different temperatures and pH were determined according to the determination steps of MICs test.
(§4) In MHB medium, Na^+, K^+, Mg^2+ and Ca^2+ with the final concentrations of 10 mM, fetal bovine serum, plasma or DMEM medium (Hyclone, Logan, UT, USA) with the final concentrations of 10% was added, and then MIC values were measured to evaluate the effects of different cations, serum and plasma on the antibacterial activity of peptides.
(§5) The peptide was incubated with protease (pepsin, trypsin and papain) (Solarbio, Beijing, China) with a final concentration of 1 mg/mL at 37 °C for 1 h, then the mixture of peptide and protease was heated at 100 °C for 30 min, then centrifuged at 13,000× g for 30 min, and the supernatant was taken for MIC determination.

E. coli B2 = type: cell-based
Experimental: as §2, §3, §4, §5

GWKKFFKKWKHVWK [GK-4]
>128 µg/mL: MIC in presence of Ca^2+ (MRSA T144 [8]; T144) | MIC after Papain treatment (MRSA T144 [8]; T144, 1 h) | MIC after Trypsin treatment (MRSA T144 [8]; T144, 1 h) | MIC in presence of Ca^2+ (E. coli B2; B2) | MIC after Papain treatment (E. coli B2; B2, 1 h) | MIC after Trypsin treatment (E. coli B2; B2, 1 h)
8 µg/mL: MIC (E. coli ATCC 25922) | MIC [5] | MIC (S. aureus G16 (RIF^R)) | MIC in Serum (10%) (MRSA T144 [8]; T144) | MIC in presence of Mg^2+ (MRSA T144 [8]; T144)
32 µg/mL: MIC in presence of Mg^2+ (E. coli B2; B2)
16 µg/mL: MIC (MRSA 1530) | MIC (E. coli 1F28 (tet(X4))) | MIC [3] | MIC [4] | MIC (P. aeruginosa PA14)
1 µg/mL: MIC after treatment at pH 2 (E. coli B2; B2, 1 h, pH 2) | MIC after treatment at pH 4 (E. coli B2; B2, 1 h, pH 4) | MIC after treatment at pH 8 (E. coli B2; B2, 1 h, pH 8) | MIC after treatment at pH 10 (E. coli B2; B2, 1 h, pH 10)
2 µg/mL: MIC [2] | MIC (E. coli C3 (blaNDM-1)) | MIC (E. coli CP131 (mcr-3)) | MIC in DMEM (10%) (MRSA T144 [8]; T144) | MIC in presence of Na^+ (MRSA T144 [8]; T144) | MIC after treatment at 40 °C (MRSA T144 [8]; T144, 1 h) | MIC after treatment at 60 °C (MRSA T144 [8]; T144, 1 h) | MIC after treatment at 80 °C (MRSA T144 [8]; T144, 1 h) | MIC after treatment at 121 °C (E. coli B2; B2) | MIC in Plasma (10%) (E. coli B2; B2) | MIC in presence of K^+ (E. coli B2; B2) | MIC in presence of Na^+ (E. coli B2; B2) | MIC, Control (E. coli B2; B2) | MIC after Pepsin treatment (E. coli B2; B2, 1 h) | MIC after treatment at 40 °C (E. coli B2; B2, 1 h) | MIC after treatment at 60 °C (E. coli B2; B2, 1 h) | MIC after treatment at 80 °C (E. coli B2; B2, 1 h) | MIC after treatment at 100 °C (E. coli B2; B2, 1 h) | MIC after treatment at pH 6 (E. coli B2; B2, 1 h, pH 6) | MIC after treatment at pH 12 (E. coli B2; B2, 1 h, pH 12)
4 µg/mL: MIC (MRSA T144 [1]) | MIC (A. baumannii ATCC 19609) | MIC (E. coli B3-1 (tet(X4))) | MIC (E. coli G6 (blaNDM-5)) | MIC (E. coli G92 (mcr-1)) | MIC (S. aureus ATCC 29213) | MIC [6] | MIC [7] | MIC after treatment at 121 °C (MRSA T144 [8]; T144) | MIC in Plasma (10%) (MRSA T144 [8]; T144) | MIC in presence of K^+ (MRSA T144 [8]; T144) | MIC, Control (MRSA T144 [8]; T144) | MIC after treatment at 100 °C (MRSA T144 [8]; T144, 1 h) | MIC after treatment at pH 2 (MRSA T144 [8]; T144, 1 h, pH 2) | MIC after treatment at pH 4 (MRSA T144 [8]; T144, 1 h, pH 4) | MIC after treatment at pH 6 (MRSA T144 [8]; T144, 1 h, pH 6) | MIC after treatment at pH 8 (MRSA T144 [8]; T144, 1 h, pH 8) | MIC after treatment at pH 10 (MRSA T144 [8]; T144, 1 h, pH 10) | MIC after treatment at pH 12 (MRSA T144 [8]; T144, 1 h, pH 12) | MIC in DMEM (10%) (E. coli B2; B2) | MIC in Serum (10%) (E. coli B2; B2)
